Experimental findings from PubChem BioAssay AID1963845 (Molecular Pharmacology Branch, DTP, NCI, 2024) are described below.

The term viability, T/C denotes the ratio of treated to control.
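Also: luminescence signal used as surrogate measure of viable cells; spheroids exposed to compounds for seven days before readout; 100% = DMSO vehicle control viability as luminescence relative to vehicle.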

One experiment relates to 429239-143-T-J1-PDC complex spheroid viability. Description: Anticancer human tumor 429239-143-T-J1-PDC patient-derived small cell lung carcinoma cell line growth inhibition [POLQ]. Particulars: second compound 0.0316 µM; first compound 1 µM; stronger effect = lower value. A digest of the protocol: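 Three-cell-type spheroids modelling solid tumor plus stroma served as the readout system; POL inhibitors were tested individually and in combination, concentration ranges set by clinical Cmax where known.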
In the case of `COc1cccc(OCCCN)c1-c1cc(Nc2cnc(C#N)cn2)n[nH]1` + Nc1ccc(C#CCN(C(=O)Cc2ncc(C(F)(F)F)cc2C(F)(F)F)c2ccc(F)cc2)nn1, the viability, T/C is 33.3%.
Regarding `O=C(c1cc(Cc2n[nH]c(=O)c3ccccc23)ccc1F)N1CCN(C(=O)C2CC2)CC1` + Nc1ccc(C#CCN(C(=O)Cc2ncc(C(F)(F)F)cc2C(F)(F)F)c2ccc(F)cc2)nn1, the viability, T/C is 84.9%.

Still in this experiment, the particulars now being: second compound 0.0316 µM; first compound 3.16 µM; stronger effect = lower value.
On to `CNCc1ccc(-c2[nH]c3cc(F)cc4c3c2CCNC4=O)cc1` + Nc1ccc(C#CCN(C(=O)Cc2ncc(C(F)(F)F)cc2C(F)(F)F)c2ccc(F)cc2)nn1, for which the viability, T/C is 82.4%.
For `O=C(c1cc(Cc2n[nH]c(=O)c3ccccc23)ccc1F)N1CCN(C(=O)C2CC2)CC1` + Nc1ccc(C#CCN(C(=O)Cc2ncc(C(F)(F)F)cc2C(F)(F)F)c2ccc(F)cc2)nn1, the viability, T/C was 64.8%.

Still in this experiment, the particulars now being: second compound 0.0316 µM; first compound 10 µM; stronger effect = lower value.
Regarding `CNCc1ccc(-c2[nH]c3cc(F)cc4c3c2CCNC4=O)cc1` + Nc1ccc(C#CCN(C(=O)Cc2ncc(C(F)(F)F)cc2C(F)(F)F)c2ccc(F)cc2)nn1, the viability, T/C was 30.9%.
On the same count and under the same terms, with `O=C(c1cc(Cc2n[nH]c(=O)c3ccccc23)ccc1F)N1CCN(C(=O)C2CC2)CC1` + Nc1ccc(C#CCN(C(=O)Cc2ncc(C(F)(F)F)cc2C(F)(F)F)c2ccc(F)cc2)nn1 the figure was 7.77%.

The experiment is the same for the next values; noted with them: second compound 0.1 µM; first compound 0.00316 µM; stronger effect = lower value.
With `C=CCn1c(=O)c2cnc(Nc3ccc(N4CCN(C)CC4)cc3)nc2n1-c1cccc(C(C)(C)O)n1` + Nc1ccc(C#CCN(C(=O)Cc2ncc(C(F)(F)F)cc2C(F)(F)F)c2ccc(F)cc2)nn1, the viability, T/C is 99.1%.
Regarding `COc1cccc(OCCCN)c1-c1cc(Nc2cnc(C#N)cn2)n[nH]1` + Nc1ccc(C#CCN(C(=O)Cc2ncc(C(F)(F)F)cc2C(F)(F)F)c2ccc(F)cc2)nn1, the viability, T/C is 95.1%.

Staying with this experiment, now noted: second compound 0.1 µM; first compound 0.01 µM; stronger effect = lower value.
On to `C=CCn1c(=O)c2cnc(Nc3ccc(N4CCN(C)CC4)cc3)nc2n1-c1cccc(C(C)(C)O)n1` + Nc1ccc(C#CCN(C(=O)Cc2ncc(C(F)(F)F)cc2C(F)(F)F)c2ccc(F)cc2)nn1, for which the viability, T/C is 103%.
Regarding `COc1cccc(OCCCN)c1-c1cc(Nc2cnc(C#N)cn2)n[nH]1` + Nc1ccc(C#CCN(C(=O)Cc2ncc(C(F)(F)F)cc2C(F)(F)F)c2ccc(F)cc2)nn1, the viability, T/C is 97.2%.

Staying with this experiment, now noted: second compound 0.1 µM; first compound 0.0316 µM; stronger effect = lower value.
As for `C=CCn1c(=O)c2cnc(Nc3ccc(N4CCN(C)CC4)cc3)nc2n1-c1cccc(C(C)(C)O)n1` + Nc1ccc(C#CCN(C(=O)Cc2ncc(C(F)(F)F)cc2C(F)(F)F)c2ccc(F)cc2)nn1, the viability, T/C was 96.6%.
`CNCc1ccc(-c2[nH]c3cc(F)cc4c3c2CCNC4=O)cc1` + Nc1ccc(C#CCN(C(=O)Cc2ncc(C(F)(F)F)cc2C(F)(F)F)c2ccc(F)cc2)nn1: the viability, T/C is 92.7%.
In the case of `COc1cccc(OCCCN)c1-c1cc(Nc2cnc(C#N)cn2)n[nH]1` + Nc1ccc(C#CCN(C(=O)Cc2ncc(C(F)(F)F)cc2C(F)(F)F)c2ccc(F)cc2)nn1, the viability, T/C was 83.1%.
On to `O=C(c1cc(Cc2n[nH]c(=O)c3ccccc23)ccc1F)N1CCN(C(=O)C2CC2)CC1` + Nc1ccc(C#CCN(C(=O)Cc2ncc(C(F)(F)F)cc2C(F)(F)F)c2ccc(F)cc2)nn1, for which the viability, T/C was 96.6%.

Still in this experiment, the particulars now being: second compound 0.1 µM; first compound 0.1 µM; stronger effect = lower value.
With `C=CCn1c(=O)c2cnc(Nc3ccc(N4CCN(C)CC4)cc3)nc2n1-c1cccc(C(C)(C)O)n1` + Nc1ccc(C#CCN(C(=O)Cc2ncc(C(F)(F)F)cc2C(F)(F)F)c2ccc(F)cc2)nn1, the viability, T/C was 103%.
With `CNCc1ccc(-c2[nH]c3cc(F)cc4c3c2CCNC4=O)cc1` + Nc1ccc(C#CCN(C(=O)Cc2ncc(C(F)(F)F)cc2C(F)(F)F)c2ccc(F)cc2)nn1, the viability, T/C is 88.4%.
For `COc1cccc(OCCCN)c1-c1cc(Nc2cnc(C#N)cn2)n[nH]1` + Nc1ccc(C#CCN(C(=O)Cc2ncc(C(F)(F)F)cc2C(F)(F)F)c2ccc(F)cc2)nn1, the viability, T/C is 71.3%.
Still for that read-out and setting: the result for `O=C(c1cc(Cc2n[nH]c(=O)c3ccccc23)ccc1F)N1CCN(C(=O)C2CC2)CC1` + Nc1ccc(C#CCN(C(=O)Cc2ncc(C(F)(F)F)cc2C(F)(F)F)c2ccc(F)cc2)nn1 reads 104%.

Still in this experiment, the particulars now being: second compound 0.1 µM; first compound 0.316 µM; stronger effect = lower value.
In the case of `C=CCn1c(=O)c2cnc(Nc3ccc(N4CCN(C)CC4)cc3)nc2n1-c1cccc(C(C)(C)O)n1` + Nc1ccc(C#CCN(C(=O)Cc2ncc(C(F)(F)F)cc2C(F)(F)F)c2ccc(F)cc2)nn1, the viability, T/C was 95%.
With `CNCc1ccc(-c2[nH]c3cc(F)cc4c3c2CCNC4=O)cc1` + Nc1ccc(C#CCN(C(=O)Cc2ncc(C(F)(F)F)cc2C(F)(F)F)c2ccc(F)cc2)nn1, the viability, T/C was 90.6%.
`COc1cccc(OCCCN)c1-c1cc(Nc2cnc(C#N)cn2)n[nH]1` + Nc1ccc(C#CCN(C(=O)Cc2ncc(C(F)(F)F)cc2C(F)(F)F)c2ccc(F)cc2)nn1: the viability, T/C is 49.4%.
Consider `O=C(c1cc(Cc2n[nH]c(=O)c3ccccc23)ccc1F)N1CCN(C(=O)C2CC2)CC1` + Nc1ccc(C#CCN(C(=O)Cc2ncc(C(F)(F)F)cc2C(F)(F)F)c2ccc(F)cc2)nn1, for which the viability, T/C is 90%.

The experiment is the same for the next values; noted with them: second compound 0.1 µM; first compound 1 µM; stronger effect = lower value.
On to `C=CCn1c(=O)c2cnc(Nc3ccc(N4CCN(C)CC4)cc3)nc2n1-c1cccc(C(C)(C)O)n1` + Nc1ccc(C#CCN(C(=O)Cc2ncc(C(F)(F)F)cc2C(F)(F)F)c2ccc(F)cc2)nn1, for which the viability, T/C is 18.7%.
Take `CNCc1ccc(-c2[nH]c3cc(F)cc4c3c2CCNC4=O)cc1` + Nc1ccc(C#CCN(C(=O)Cc2ncc(C(F)(F)F)cc2C(F)(F)F)c2ccc(F)cc2)nn1: the viability, T/C was 86.8%.
The same measure, in the same setting: with `COc1cccc(OCCCN)c1-c1cc(Nc2cnc(C#N)cn2)n[nH]1` + Nc1ccc(C#CCN(C(=O)Cc2ncc(C(F)(F)F)cc2C(F)(F)F)c2ccc(F)cc2)nn1 the figure was 28.7%.
For the compound `O=C(c1cc(Cc2n[nH]c(=O)c3ccccc23)ccc1F)N1CCN(C(=O)C2CC2)CC1` + Nc1ccc(C#CCN(C(=O)Cc2ncc(C(F)(F)F)cc2C(F)(F)F)c2ccc(F)cc2)nn1, the viability, T/C is 95.9%.

The same experiment, now with this note: second compound 0.1 µM; first compound 3.16 µM; stronger effect = lower value.
Turning to `CNCc1ccc(-c2[nH]c3cc(F)cc4c3c2CCNC4=O)cc1` + Nc1ccc(C#CCN(C(=O)Cc2ncc(C(F)(F)F)cc2C(F)(F)F)c2ccc(F)cc2)nn1, the viability, T/C was 80.6%.
For the compound `O=C(c1cc(Cc2n[nH]c(=O)c3ccccc23)ccc1F)N1CCN(C(=O)C2CC2)CC1` + Nc1ccc(C#CCN(C(=O)Cc2ncc(C(F)(F)F)cc2C(F)(F)F)c2ccc(F)cc2)nn1, the viability, T/C was 60.8%.

Still in this experiment, the particulars now being: second compound 0.1 µM; first compound 10 µM; stronger effect = lower value.
`CNCc1ccc(-c2[nH]c3cc(F)cc4c3c2CCNC4=O)cc1` + Nc1ccc(C#CCN(C(=O)Cc2ncc(C(F)(F)F)cc2C(F)(F)F)c2ccc(F)cc2)nn1: the viability, T/C was 26.5%.
For `O=C(c1cc(Cc2n[nH]c(=O)c3ccccc23)ccc1F)N1CCN(C(=O)C2CC2)CC1` + Nc1ccc(C#CCN(C(=O)Cc2ncc(C(F)(F)F)cc2C(F)(F)F)c2ccc(F)cc2)nn1, the viability, T/C is 6.66%.

Staying with this experiment, now noted: second compound 0.316 µM; first compound 0.00316 µM; stronger effect = lower value.
With `C=CCn1c(=O)c2cnc(Nc3ccc(N4CCN(C)CC4)cc3)nc2n1-c1cccc(C(C)(C)O)n1` + Nc1ccc(C#CCN(C(=O)Cc2ncc(C(F)(F)F)cc2C(F)(F)F)c2ccc(F)cc2)nn1, the viability, T/C is 106%.
On the same count and under the same terms, the result for `COc1cccc(OCCCN)c1-c1cc(Nc2cnc(C#N)cn2)n[nH]1` + Nc1ccc(C#CCN(C(=O)Cc2ncc(C(F)(F)F)cc2C(F)(F)F)c2ccc(F)cc2)nn1 reads 103%.

Staying with this experiment, now noted: second compound 0.316 µM; first compound 0.01 µM; stronger effect = lower value.
Turning to `C=CCn1c(=O)c2cnc(Nc3ccc(N4CCN(C)CC4)cc3)nc2n1-c1cccc(C(C)(C)O)n1` + Nc1ccc(C#CCN(C(=O)Cc2ncc(C(F)(F)F)cc2C(F)(F)F)c2ccc(F)cc2)nn1, the viability, T/C is 110%.
Turning to `COc1cccc(OCCCN)c1-c1cc(Nc2cnc(C#N)cn2)n[nH]1` + Nc1ccc(C#CCN(C(=O)Cc2ncc(C(F)(F)F)cc2C(F)(F)F)c2ccc(F)cc2)nn1, the viability, T/C is 98.9%.

The same experiment, now with this note: second compound 0.316 µM; first compound 0.0316 µM; stronger effect = lower value.
For `C=CCn1c(=O)c2cnc(Nc3ccc(N4CCN(C)CC4)cc3)nc2n1-c1cccc(C(C)(C)O)n1` + Nc1ccc(C#CCN(C(=O)Cc2ncc(C(F)(F)F)cc2C(F)(F)F)c2ccc(F)cc2)nn1, the viability, T/C was 108%.
As for `CNCc1ccc(-c2[nH]c3cc(F)cc4c3c2CCNC4=O)cc1` + Nc1ccc(C#CCN(C(=O)Cc2ncc(C(F)(F)F)cc2C(F)(F)F)c2ccc(F)cc2)nn1, the viability, T/C was 97.2%.
For `COc1cccc(OCCCN)c1-c1cc(Nc2cnc(C#N)cn2)n[nH]1` + Nc1ccc(C#CCN(C(=O)Cc2ncc(C(F)(F)F)cc2C(F)(F)F)c2ccc(F)cc2)nn1, the viability, T/C is 98.7%.
Turning to `O=C(c1cc(Cc2n[nH]c(=O)c3ccccc23)ccc1F)N1CCN(C(=O)C2CC2)CC1` + Nc1ccc(C#CCN(C(=O)Cc2ncc(C(F)(F)F)cc2C(F)(F)F)c2ccc(F)cc2)nn1, the viability, T/C was 104%.

The experiment is the same for the next values; noted with them: second compound 0.316 µM; first compound 0.1 µM; stronger effect = lower value.
Regarding `C=CCn1c(=O)c2cnc(Nc3ccc(N4CCN(C)CC4)cc3)nc2n1-c1cccc(C(C)(C)O)n1` + Nc1ccc(C#CCN(C(=O)Cc2ncc(C(F)(F)F)cc2C(F)(F)F)c2ccc(F)cc2)nn1, the viability, T/C is 101%.
`CNCc1ccc(-c2[nH]c3cc(F)cc4c3c2CCNC4=O)cc1` + Nc1ccc(C#CCN(C(=O)Cc2ncc(C(F)(F)F)cc2C(F)(F)F)c2ccc(F)cc2)nn1: the viability, T/C was 94.7%.
`COc1cccc(OCCCN)c1-c1cc(Nc2cnc(C#N)cn2)n[nH]1` + Nc1ccc(C#CCN(C(=O)Cc2ncc(C(F)(F)F)cc2C(F)(F)F)c2ccc(F)cc2)nn1: the viability, T/C was 65.3%.
For `O=C(c1cc(Cc2n[nH]c(=O)c3ccccc23)ccc1F)N1CCN(C(=O)C2CC2)CC1` + Nc1ccc(C#CCN(C(=O)Cc2ncc(C(F)(F)F)cc2C(F)(F)F)c2ccc(F)cc2)nn1, the viability, T/C is 99.1%.
